Test results published in ChEMBL document CHEMBL6074680, “Structure-Based Discovery of a Series of Covalent, Orally Bioavailable, and Selective BFL1 Inhibitors” (J Med Chem, 2024).

Columns and labels:
SU-DHL-1 [1] = experiment: Induction of apoptosis in human SU-DHL-1 cells assessed as caspase activation in presence of AZD5991 incubated for 6 hrs by caspaseGlo 3/7 reagent based assay; format: functional, cell-based; details: SU-DHL-1, 6 h
[2] = biological target: Induced myeloid leukemia cell differentiation protein Mcl-1 (Homo sapiens, UniProt Q07820); experiment: Inhibition of MCL1 (unknown origin) by FRET assay
Induced myeloid leukemia cell differentiation protein Mcl-1, sequence (Q07820 whole entry): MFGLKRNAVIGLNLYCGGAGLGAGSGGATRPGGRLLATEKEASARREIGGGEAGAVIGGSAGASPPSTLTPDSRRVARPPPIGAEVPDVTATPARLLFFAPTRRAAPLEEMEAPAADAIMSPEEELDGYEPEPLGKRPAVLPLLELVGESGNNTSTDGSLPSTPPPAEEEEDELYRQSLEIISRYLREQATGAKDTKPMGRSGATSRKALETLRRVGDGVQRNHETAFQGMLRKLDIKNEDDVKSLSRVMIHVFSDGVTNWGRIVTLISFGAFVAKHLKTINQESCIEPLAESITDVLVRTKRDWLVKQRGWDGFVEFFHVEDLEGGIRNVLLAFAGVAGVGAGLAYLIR

BCL2A1/BID = biological target: T1, BCL2A1/BID (Homo sapiens, UniProt Q16548); experiment: Inhibition of BFL-1/ BH3 (unknown origin) interaction incubated for 2 hrs by TR-FRET assay; format: protein assay
T1 sequence (Q16548 whole entry): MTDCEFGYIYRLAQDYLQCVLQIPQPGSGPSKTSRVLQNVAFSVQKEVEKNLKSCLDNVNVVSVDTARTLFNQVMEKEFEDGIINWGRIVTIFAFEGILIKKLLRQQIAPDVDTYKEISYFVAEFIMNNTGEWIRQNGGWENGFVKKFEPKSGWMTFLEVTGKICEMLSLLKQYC
T1 sequence (P55957 whole entry): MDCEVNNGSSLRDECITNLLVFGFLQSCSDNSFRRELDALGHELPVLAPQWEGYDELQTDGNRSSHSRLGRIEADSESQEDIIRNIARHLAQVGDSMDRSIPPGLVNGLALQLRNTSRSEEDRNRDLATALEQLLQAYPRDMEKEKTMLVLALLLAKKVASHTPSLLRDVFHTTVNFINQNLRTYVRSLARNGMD

[3] = Metabolic stability in mouse hepatocytes assessed as intrinsic clearance measured per 10^6 cells; format: ADME, cell-based, Hepatocyte; details: read-out: CLH
[4] = Lipophilicity, log D of compound in 1-octanol at pH 7.4 incubated for 4 hrs by HPLC-UV analysis; format: physicochemical; details: 1-octanol / aqueous phase at pH 7.4, pH 7.4
[5] = Metabolic stability in human hepatocytes assessed as intrinsic clearance measured per 10^6 cells; format: ADME, cell-based, Hepatocyte; details: read-out: CLH
[6] = Metabolic stability in rat hepatocytes assessed as intrinsic clearance measured per 10^6 cells; format: ADME, cell-based, Hepatocyte
Bcl-2-like protein 1 = Bcl-2-like protein 1 (Homo sapiens, UniProt Q07817); experiment: Inhibition of Bcl-Xl (unknown origin) by FRET assay
Bcl-2-like protein 1, sequence (Q07817 whole entry): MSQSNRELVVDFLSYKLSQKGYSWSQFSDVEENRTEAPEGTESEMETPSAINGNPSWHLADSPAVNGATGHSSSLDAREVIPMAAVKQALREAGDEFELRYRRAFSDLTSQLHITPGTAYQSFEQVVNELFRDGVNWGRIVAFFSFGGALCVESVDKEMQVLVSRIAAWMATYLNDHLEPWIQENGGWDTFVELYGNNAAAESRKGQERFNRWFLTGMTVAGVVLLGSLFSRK

[7] = biological target: Apoptosis regulator Bcl-2 (Homo sapiens, UniProt P10415); experiment: Inhibition of BCL2 (unknown origin) by FRET assay
Apoptosis regulator Bcl-2, sequence (P10415 whole entry): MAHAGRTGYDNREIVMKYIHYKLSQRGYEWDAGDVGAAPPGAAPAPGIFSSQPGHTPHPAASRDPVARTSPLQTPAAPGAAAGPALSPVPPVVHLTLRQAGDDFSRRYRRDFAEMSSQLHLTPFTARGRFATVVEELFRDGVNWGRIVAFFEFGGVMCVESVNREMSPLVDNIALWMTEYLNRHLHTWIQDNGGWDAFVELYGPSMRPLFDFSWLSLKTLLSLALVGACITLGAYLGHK

SU-DHL-1 [8] = experiment: Antiproliferative activity against human SU-DHL-1 cells assessed as cell viability incubated for 24 hrs by celltiter-glo assay; format: functional, cell-based; details: SU-DHL-1, 24 h
[9] = Metabolic stability in human liver microsome assessed as intrinsic clearance; format: ADME; details: human liver microsomes, read-out: CLH
[10] = GSH reactivity in PBS buffer at pH 7.4 assessed as half life by LC-UV/MS analysis; format: physicochemical
[11] = Half life in CD-1 mouse at 1 mg/kg, po or 0.5 mg/kg, iv measured upto 24 hrs by LC-MS/MS analysis; format: ADME, organism-based; details: in vivo
[12] = Apparent permeability across apical to basolateral side in human Caco-2 cells measured upto 120 mins by LC-MS/MS analysis; format: ADME, cell-based
[13] = Plasma protein binding in mouse assessed as unbound fraction; format: ADME, cell-free
[14] = Volume of distribution at steady state in CD-1 mouse at 1 mg/kg, po or 0.5 mg/kg, iv measured upto 24 hrs by LC-MS/MS analysis; format: ADME, organism-based; details: in vivo
[15] = AUC in CD-1 mouse at 1 mg/kg, po or 0.5 mg/kg, iv measured upto 24 hrs by LC-MS/MS analysis; format: ADME, organism-based; details: in vivo
[16] = Cmax in CD-1 mouse at 1 mg/kg, po or 0.5 mg/kg, iv measured upto 24 hrs by LC-MS/MS analysis; format: ADME, organism-based; details: in vivo
[17] = Oral bioavailability in CD-1 mouse at 1 mg/kg or 0.5 mg/kg measured upto 24 hrs by LC-MS/MS analysis; format: ADME, organism-based; details: in vivo

Row | SMILES | EC50 (SU-DHL-1 [1]) [nM] | IC50 (BCL2A1/BID) [nM] | hepatocyte CLint [3] [µL/min/1e6 cells] | logD at 4 h [4] | hepatocyte CLint [5] [µL/min/1e6 cells] | hepatocyte CLint ([6]; rat hepatocytes, read-out: CLH) [µL/min/1e6 cells] | EC50 (SU-DHL-1 [8]) [nM] | further results
1 | C=CC(=O)N(c1ccc(O[C@@H]2CC[C@@H](N)C2)cc1)[C@@H](CC(N)=O)c1ccc(Cl)cc1 | 490 | 43 |  |  |  |  |  | IC50 [2]: > 100 µM
2 | C=CC(=O)N(c1ccc(O[C@@H]2CC[C@@H](NC(=O)N[C@@H]3CCS(=O)(=O)C3)C2)c(F)c1)[C@@H](CC(N)=O)c1ccc(Cl)cc1 | 79 | 5 | 45 | 2.2 | 25 | 74 |  | 
3 | C=C(C)C(=O)N(Cc1ccc(C(F)(F)F)cc1)c1ccc(O[C@@H]2CC[C@@H](N)C2)cc1 (racemic) |  | > 10000 |  |  |  |  |  | 
4 | C=CC(=O)N(c1ccc(O[C@@H]2CC[C@@H](N)C2)cc1)[C@H](c1ccc(Cl)cc1)c1cncnc1 | 120 | 33 |  |  |  |  |  | 
5 | C[C@@H](c1ccc(Cl)cc1)N(C(=O)/C=C/CN(C)C)c1ccc(O[C@@H]2CC[C@@H](NC(=O)N[C@@H]3CCS(=O)(=O)C3)C2)c(F)c1 | 52 | 8.5 | 17 | 2.5 | 1.5 | 28 | 110 | IC50 (Bcl-2-like protein 1): > 30 µM; IC50 [7]: > 30 µM
6 | C=CC(=O)N(c1ccc(O[C@@H]2CC[C@@H](N)C2)cc1OC)[C@@H](C)c1ccc(Cl)cc1 | 2400 | 880 |  |  |  |  |  | 
7 | C=CC(=O)N(c1ccc(O[C@@H]2CC[C@@H](N)C2)cc1)[C@@H](CCNS(C)(=O)=O)c1ccc(Cl)cc1 | 90 | 17 |  |  |  |  | 130 | 
8 | C=CC(=O)N(c1ccc(O[C@@H]2CC[C@@H](N)C2)cc1)[C@@H](C)c1ccc(Cl)cc1 | 1100 |  |  |  |  |  |  | 
9 | C=CC(=O)N(c1ccc(O[C@@H]2CC[C@@H](NC(=O)NCCN(C)C)C2)c(Cl)c1)[C@@H](C)c1ccc(Cl)cc1 | 28 | 4.5 | 42 | 3.5 | 9.8 | 17 | 72 | 
10 | C=CC(=O)N(c1cc(F)c(O[C@@H]2CC[C@@H](N)C2)cc1C)[C@@H](C)c1ccc(Cl)cc1 | 530 | 31 |  | 2.7 |  |  |  | microsomal CLint [9]: 9.4 µL/min/mg; half-life [10]: 268 min; hepatocyte CLint ([6]; hepatocytes): 12 µL/min/1e6 cells
11 | C=CC(=O)N(c1ccc(O[C@@H]2CC[C@@H](N)C2)cc1)[C@@H](COC)c1ccc(Cl)cc1 | 450 |  |  |  |  |  |  | IC50 [2]: > 100 µM
12 | C[C@@H](c1ccc(Cl)cc1)N(C(=O)/C=C/CN(C)C)c1ccc(O[C@@H]2CC[C@@H](NC(=O)NC3CS(=O)(=O)C3)C2)c(F)c1 | 110 | 10 | 23 | 2.7 | 2.6 |  | 110 | half-life [11]: 162 min; Papp A→B at 2 h [12]: < 11 ×10⁻⁶ cm/s; IC50 (Bcl-2-like protein 1): > 30 µM; IC50 [7]: > 30 µM; fraction unbound [13]: 0.085; Vdss [14]: 4.6 L/kg
13 | C=CC(=O)N(c1ccc(O[C@@H]2CC[C@@H](NC(=O)NCC(C)(C)N(C)C)C2)c(F)c1)[C@@H](C)c1ccc(Cl)cc1 | 30 | 3.9 | 73 | 2.8 | 6.1 | 14 | 87 | 
14 | C=CC(=O)N(c1ccc(O[C@@H]2CC[C@@H](NC(=O)N[C@@H]3CCS(=O)(=O)C3)C2)c(Cl)c1)[C@@H](C)c1ccc(Cl)cc1 | 38 | 5.4 | 42 | 4.2 | 11 | 55 | 48 | AUC at 24 h [15]: 0.036 µM·h; Cmax [16]: 15 nM; half-life [11]: 45 min; Papp A→B at 2 h [12]: 16 ×10⁻⁶ cm/s; IC50 (Bcl-2-like protein 1): > 30 µM; IC50 [7]: > 30 µM; bioavailability [17]: 16%; fraction unbound [13]: 0.013; Vdss [14]: 4.1 L/kg
15 | C=CC(=O)N(c1ccc(O[C@@H]2CC[C@@H](N)C2)cc1)[C@@H](CC(C)(C)O)c1ccc(Cl)cc1 | 520 | 33 |  |  |  |  |  | IC50 [2]: > 100 µM
16 | C=CC(=O)N(c1ccc(O[C@@H]2CC[C@@H](NC(=O)N[C@@H]3CCS(=O)(=O)C3)C2)c(F)c1)[C@@H](C)c1ccc(Cl)cc1 | 83 | 8.5 | 69 | 3.7 | 7.4 | 59 | 190 | AUC at 24 h [15]: 0.19 µM·h; Cmax [16]: 53 nM; half-life [11]: 186 min; Papp A→B at 2 h [12]: < 11 ×10⁻⁶ cm/s; IC50 (Bcl-2-like protein 1): > 30 µM; IC50 [7]: > 30 µM; bioavailability [17]: 37%; fraction unbound [13]: 0.027; Vdss [14]: 4 L/kg
17 | C=CC(=O)N(c1ccc(O[C@@H]2CC[C@@H](NC(=O)N[C@H]3CCNC3)C2)cc1)[C@@H](C)c1ccc(Cl)cc1 | 3100 | 29 |  |  |  |  |  | IC50 [2]: > 100 µM
18 | C=CC(=O)N(c1ccc(O[C@@H]2CC[C@@H](NC(=O)NCCN(C)C)C2)cc1)[C@@H](C)c1ccc(Cl)cc1 | 500 | 50 |  |  |  |  |  | 
